The subject of data set [1] is old mice. Nature of the data set: Old mouse model: body weight, dietary intake, gastrocnemius weight. Type of data set: in vivo, 18-month-old C57BL/6 mice. The method, then:
An 18-month-old C57BL/6 was purchased, and maintained in the same breeding environment as above the high-fat diet-induced animal model, and fed with a normal chow diet during the experiment. After adapting the old mice to the breeding environment for 1 week, they were randomly divided into a control group and an experimental group, and phosphate-buffered saline was administered to the control group and homoharringtonine (0.545 μg/g body weight) was administered to the experimental group intraperitoneally three times a week for more than 4 months.

For data set [2], the system named is animal model with lower limb fixation-induced muscular atrophy. Nature of the data set: Animal model with lower limb fixation-induced muscular atrophy: body weight, dietary intake, muscle weights. Type of data set: in vivo, C57BL/6 male mice. The conditions noted are these: lower limb fixation mice; 0.545 μg/g i.p. three times a week for 4 weeks; vs phosphate-buffered saline group. The method, then:
8-week-old C57BL/6 male mice were adapted to the breeding environment for 1 week and then treated with homoharringtonine for 1 week, and the left lower limb was fixed using a stapler and maintained for 3 weeks. The animal model with lower limb fixation-induced muscular atrophy is an animal model for inducing muscular atrophy by reducing a load of body weight, and induction was conducted using a skin stapler (Manipler AZ, Utsunomiya, Tochigi, Japan) according to a method of Caron et al. (A novel hindlimb immobilization procedure for studying skeletal muscular atrophy and recovery in mouse. J Appl Physiol. 2009 June; 106(6):2049-59.). The unfixed right side was used as a control group.
For a total of 4 weeks from 1 week before fixation to 3 weeks of fixation, phosphate-buffered saline was administered to the control group and homoharringtonine (0.545 μg/g body weight) was administered to the experimental group three times a week intraperitoneally.

Entries after “also recorded” stand apart in the source; their conditions may differ.

In the case of `COC(=O)C[C@](O)(CCCC(C)(C)O)C(=O)O[C@@H]1C(OC)=C[C@]23CCCN2CCc2cc4c(cc2[C@H]13)OCO4` [homoharringtonine], the body weight entry in data set [1] (0.545 μg/g i.p. three times a week, vs phosphate-buffered saline group) is recorded as “did not show a significant difference; also recorded: no statistically significant difference”; in data set [2], “no statistically significant difference”. Also, the “body weight after 6 months of administration” value in data set [1] (another experimental group, 6 months of injection, vs control group) is recorded as “no significant difference”.
